Read-outs that look alike come from different tables or passages of the source.

The term IC50 denotes the concentration needed to halve the response being measured.

The target in one assay is FGFR3 (Homo sapiens (Human), UniProt P22607). Put plainly: FGFR biochemical assay (LanthaScreen TR-FRET kinase assay), FGFR3.
A further assay addresses FGFR1 (Homo sapiens (Human), UniProt P11362). Put plainly: FGFR biochemical assay (LanthaScreen TR-FRET kinase assay), FGFR1. (In general: TR-FRET usually uses a lanthanide donor and a delayed reading to cut background.)
In another assay the target is FGFR2 (Homo sapiens (Human), UniProt P21802). Put plainly: FGFR biochemical assay (LanthaScreen TR-FRET kinase assay), FGFR2.
Where [1] appears, read: read-out: FGFR2 IC50, incubation with enzyme at room temperature for 10 minutes before substrate, ATP 22 μM, FGFR2 0.01 nM.
Setting [2] is: read-out: FGFR3 IC50, incubation with enzyme at room temperature for 10 minutes before substrate, ATP 35 μM, FGFR3 0.1 nM.
Where [3] appears, read: read-out: FGFR1 IC50, incubation with enzyme at room temperature for 10 minutes before substrate, ATP 28 μM, FGFR1 0.01 nM.

Sequence of FGFR1 (P11362 22-822): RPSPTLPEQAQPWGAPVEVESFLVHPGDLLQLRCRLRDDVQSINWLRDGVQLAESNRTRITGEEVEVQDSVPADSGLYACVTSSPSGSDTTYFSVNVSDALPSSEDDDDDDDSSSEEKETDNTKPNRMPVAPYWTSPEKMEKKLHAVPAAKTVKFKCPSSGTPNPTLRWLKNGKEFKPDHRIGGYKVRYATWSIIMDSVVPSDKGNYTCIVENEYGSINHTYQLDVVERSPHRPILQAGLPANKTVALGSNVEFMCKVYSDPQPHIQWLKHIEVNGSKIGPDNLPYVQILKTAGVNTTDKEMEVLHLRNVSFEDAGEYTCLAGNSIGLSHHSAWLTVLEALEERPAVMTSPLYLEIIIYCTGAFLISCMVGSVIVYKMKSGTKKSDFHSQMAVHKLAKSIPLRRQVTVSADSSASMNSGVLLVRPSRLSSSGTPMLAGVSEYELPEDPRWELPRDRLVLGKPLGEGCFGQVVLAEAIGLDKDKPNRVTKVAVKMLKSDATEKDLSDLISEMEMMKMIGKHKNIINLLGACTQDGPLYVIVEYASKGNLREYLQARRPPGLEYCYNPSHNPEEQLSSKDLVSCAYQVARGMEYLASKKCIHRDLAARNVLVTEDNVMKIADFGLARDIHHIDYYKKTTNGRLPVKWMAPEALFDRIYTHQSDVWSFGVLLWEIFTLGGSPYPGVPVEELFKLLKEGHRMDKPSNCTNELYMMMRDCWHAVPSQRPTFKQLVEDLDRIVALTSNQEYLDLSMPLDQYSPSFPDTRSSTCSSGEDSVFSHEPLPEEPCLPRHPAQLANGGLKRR
Sequence of FGFR2 (P21802 22-821): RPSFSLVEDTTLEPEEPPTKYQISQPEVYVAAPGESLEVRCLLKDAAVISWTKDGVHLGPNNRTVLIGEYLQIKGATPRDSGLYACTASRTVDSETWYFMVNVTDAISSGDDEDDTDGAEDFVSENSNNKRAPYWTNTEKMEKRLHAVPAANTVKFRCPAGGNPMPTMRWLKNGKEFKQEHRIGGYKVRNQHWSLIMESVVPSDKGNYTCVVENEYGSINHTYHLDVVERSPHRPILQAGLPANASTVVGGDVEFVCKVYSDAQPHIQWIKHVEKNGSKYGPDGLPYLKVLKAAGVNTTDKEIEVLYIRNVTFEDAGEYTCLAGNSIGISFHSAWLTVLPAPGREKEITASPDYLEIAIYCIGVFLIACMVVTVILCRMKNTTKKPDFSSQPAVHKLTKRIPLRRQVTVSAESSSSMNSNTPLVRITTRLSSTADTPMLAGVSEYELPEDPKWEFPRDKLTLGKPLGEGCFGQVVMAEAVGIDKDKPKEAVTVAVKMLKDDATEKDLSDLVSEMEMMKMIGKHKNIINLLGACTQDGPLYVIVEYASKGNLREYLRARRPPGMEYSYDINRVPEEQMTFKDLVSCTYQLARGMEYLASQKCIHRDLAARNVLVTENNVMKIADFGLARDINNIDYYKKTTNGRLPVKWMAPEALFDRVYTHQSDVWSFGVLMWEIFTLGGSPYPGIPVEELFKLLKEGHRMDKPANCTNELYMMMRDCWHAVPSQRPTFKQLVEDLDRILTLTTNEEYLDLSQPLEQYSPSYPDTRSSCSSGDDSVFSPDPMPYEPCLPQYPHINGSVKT
Sequence of FGFR3 (P22607 23-806): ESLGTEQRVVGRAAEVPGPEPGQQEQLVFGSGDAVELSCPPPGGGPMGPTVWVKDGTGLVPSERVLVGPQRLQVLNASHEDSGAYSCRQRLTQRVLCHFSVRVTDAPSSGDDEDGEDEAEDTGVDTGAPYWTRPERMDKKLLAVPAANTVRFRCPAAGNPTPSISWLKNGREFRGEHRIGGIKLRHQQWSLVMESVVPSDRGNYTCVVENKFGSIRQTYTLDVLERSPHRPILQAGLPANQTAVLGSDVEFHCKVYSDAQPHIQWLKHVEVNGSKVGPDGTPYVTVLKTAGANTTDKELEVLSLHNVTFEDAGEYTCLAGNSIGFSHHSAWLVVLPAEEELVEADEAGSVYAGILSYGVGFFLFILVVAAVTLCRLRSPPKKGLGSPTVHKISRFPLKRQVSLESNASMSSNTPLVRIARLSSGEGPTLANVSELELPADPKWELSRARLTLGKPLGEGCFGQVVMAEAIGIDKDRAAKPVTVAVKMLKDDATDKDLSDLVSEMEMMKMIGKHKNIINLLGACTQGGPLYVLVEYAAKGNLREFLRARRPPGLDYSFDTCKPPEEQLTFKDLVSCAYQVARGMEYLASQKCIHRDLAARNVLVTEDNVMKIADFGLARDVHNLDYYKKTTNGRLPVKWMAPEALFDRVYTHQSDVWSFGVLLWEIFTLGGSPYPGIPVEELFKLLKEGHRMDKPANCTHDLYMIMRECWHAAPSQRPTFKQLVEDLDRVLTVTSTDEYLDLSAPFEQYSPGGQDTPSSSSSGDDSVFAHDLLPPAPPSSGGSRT
Procedure for FGFR1: (§1) Convert Ratio values to percent inhibition values (Percent inhibition=(max−sample Ratio)/(max−min)*100) where “min” means the Ratio of no enzyme control and “max” means the Ratio of DMSO control. • Data are analyzed and curve fitting is performed by XLFit Excel add-in version 5.4.0.8. The IC50 calculation equation is: Y=Bottom+(Top-Bottom)/(1+ (IC50/X)^HillSlope.
Procedure for FGFR2: as §1
Procedure for FGFR3: as §1

Take `C=CC(=O)Nc1ccc(-c2c(-c3ccc(Oc4cccc(C)n4)cc3)c(C(N)=O)c3cccnn23)cc1` [Example 20, 7-(4-acrylamidophenyl)-6-(4-((6-methylpyridin-2-yl)oxy)phenyl)pyrrolo[1,2-b]pyridazine-5-carboxamide]: the values for the IC50 at FGFR3, at FGFR1 and on FGFR2 (setting [1]) were 10 to 100 nM, 10 to 100 nM and less than 10 nM, respectively.
On to `C=CC(=O)Nc1ccc(-c2c(-c3ccc(Oc4cccc(C)n4)cc3)c(C(N)=O)c3cnc(C4CN(C)C4)cn23)cc1` [Example 21, 6-(4-acrylamidophenyl)-3-(1-methylazetidin-3-yl)-7-(4-((6-methylpyridin-2-yl)oxy)phenyl)pyrrolo[1,2-a]pyrazine-8-carboxamide], for which the half-inhibitory concentration (IC50) on FGFR3 was 10 to 100 nM; against FGFR1, 100 to 1000 nM; on FGFR2 (setting [1]) it was less than 10 nM.
Take `C=CC(=O)Nc1ccc(-c2c(-c3ccc(OC)cc3)c(C(N)=O)c3cnccn23)cc1` [Example 22, 6-(4-acrylamidophenyl)-7-(4-methoxyphenyl)pyrrolo[1,2-a]pyrazine-8-carboxamide]: the half-maximal inhibitory concentration (IC50) on FGFR3 fell in the range of 100 to 1000 nM; against FGFR1, 100 to 1000 nM; against FGFR2, 10 to 100 nM.
As for `C=CC(=O)Nc1ccc(-c2c(-c3ccc(Oc4cccc(C)n4)cc3)c(C#N)c3sccn23)cc1` [Example 24, N-(4-(7-cyano-6-(4-((6-methylpyridin-2-yl)oxy)phenyl)pyrrolo[2,1-b]thiazol-5-yl)phenyl) acrylamide], the IC50 on FGFR3 (setting [2]), at FGFR1 (setting [3]) and at FGFR2 (setting [1]) was more than 1000 nM throughout.
With `C=CC(=O)Nc1ccc(-c2c(-c3ccc(Oc4cccc(C)n4)c(OC)c3)c(C(N)=O)c3cnccn23)cc1` [Example 25, 6-(4-acrylamidophenyl)-7-(3-methoxy-4-((6-methylpyridin-2-yl)oxy)phenyl)pyrrolo[1,2-a]pyrazine-8-carboxamide], the IC50 against FGFR3 is 10 to 100 nM; on FGFR1 it was 100 to 1000 nM; on FGFR2 (setting [1]), less than 10 nM.
With `C=CC(=O)Nc1ccc(-c2c(-c3ccc(Oc4ccccn4)cc3)c(C(N)=O)c3cnccn23)cc1` [Example 26, 6-(4-acrylamidophenyl)-7-(4-(pyridin-2-yloxy)phenyl)pyrrolo[1,2-a]pyrazine-8-carboxamide], the 50% inhibitory concentration (IC50) against FGFR3 is 10 to 100 nM; against FGFR1, 100 to 1000 nM; at FGFR2 (setting [1]), less than 10 nM.
`C=CC(=O)Nc1ccc(-c2c(-c3ccc(S(=O)(=O)C4CC4)cc3)c(C(N)=O)c3cnccn23)cc1` [Example 27, 6-(4-acrylamidophenyl)-7-(4-(cyclopropylsulfonyl)phenyl)pyrrolo[1,2-a]pyrazine-8-carboxamide]: the IC50 is 100 to 1000 nM against FGFR3, more than 1000 nM at FGFR1 (setting [3]) and 100 to 1000 nM on FGFR2.
Turning to `C=CC(=O)Nc1ccc(-c2c(-c3ccc(OC4CCCC4)cc3)c(C(N)=O)c3cnccn23)cc1` [Example 28, 6-(4-acrylamidophenyl)-7-(4-(cyclopentyloxy)phenyl)pyrrolo[1,2-a]pyrazine-8-carboxamide], the IC50 at FGFR3 (setting [2]) is less than 10 nM; at FGFR1, 100 to 1000 nM; on FGFR2 (setting [1]) it was less than 10 nM.
For the compound `C=CC(=O)Nc1ccc(-c2c(-c3ccc(Oc4cccc(C)n4)cc3)c(C(N)=O)c3cnc(CN(C)C)cn23)cc1` [Example 29, 6-(4-acrylamidophenyl)-3-((dimethylamino)methyl)-7-(4-((6-methylpyridin-2-yl)oxy)phenyl)pyrrolo[1,2-a]pyrazine-8-carboxamide], the IC50 was 100 to 1000 nM at FGFR3, more than 1000 nM on FGFR1 (setting [3]) and 10 to 100 nM at FGFR2.
Consider `C=CC(=O)Nc1ccc(-c2c(-c3ccc(C(=O)N4CC5(CCC5)C4)cc3)c(C(N)=O)c3cnccn23)cc1` [Example 30, 7-(4-(2-azaspiro[3.3]heptane-2-carbonyl)phenyl)-6-(4-acrylamidophenyl)pyrrolo[1,2-a]pyrazine-8-carboxamide], for which the IC50 lay in the range of 100 to 1000 nM against FGFR3, 100 to 1000 nM at FGFR1 and 10 to 100 nM against FGFR2.
Take `C=CC(=O)Nc1ccc(-c2c(-c3ccc(Oc4cccc(C)n4)c(F)c3)c(C(N)=O)c3cnccn23)cc1` [Example 32, 6-(4-acrylamidophenyl)-7-(3-fluoro-4-((6-methylpyridin-2-yl)oxy)phenyl)pyrrolo[1,2-a]pyrazine-8-carboxamide]: the IC50 on FGFR3 (setting [2]) is less than 10 nM; on FGFR1 it was 10 to 100 nM; on FGFR2 (setting [1]), less than 10 nM.
Turning to `C=CC(=O)Nc1ccc(-c2c(-c3ccc(Oc4nccc(C)n4)c(F)c3)c(C(N)=O)c3cnccn23)cc1` [Example 33, 6-(4-acrylamidophenyl)-7-(3-fluoro-4-((4-methylpyrimidin-2-yl)oxy)phenyl)pyrrolo[1,2-a]pyrazine-8-carboxamide], the figures for the IC50 against FGFR3, on FGFR1 and on FGFR2 (setting [1]) were 10 to 100 nM, 10 to 100 nM and less than 10 nM, respectively.
Consider `C=C(C)C(=O)Nc1ccc(-c2c(-c3ccc(Oc4nccc(C)n4)c(F)c3)c(C(N)=O)c3cnccn23)cc1` [Example 34, 7-(3-fluoro-4-((4-methylpyrimidin-2-yl)oxy)phenyl)-6-(4-methacrylamidophenyl)pyrrolo[1,2-a]pyrazine-8-carboxamide], for which the figures for the IC50 against FGFR3, at FGFR1 (setting [3]) and on FGFR2 were 100 to 1000 nM, more than 1000 nM and 100 to 1000 nM, respectively.
Take `C=CC(=O)Nc1ccc(-c2c(-c3ccc(Oc4nccc(C)n4)c(F)c3)c(C(N)=O)c3cnc(C)cn23)cc1` [Example 35, 6-(4-acrylamidophenyl)-7-(3-fluoro-4-((4-methylpyrimidin-2-yl)oxy)phenyl)-3-methylpyrrolo[1,2-a]pyrazine-8-carboxamide]: the IC50 at FGFR3 (setting [2]) is less than 10 nM; at FGFR1, 10 to 100 nM; on FGFR2 (setting [1]) it was less than 10 nM.
With `C=CC(=O)Nc1ccc(-c2c(-c3ccc(Oc4nccc(C)n4)c(F)c3)c(C(N)=O)c3cnc(C)cn23)cn1` [Example 36, 6-(6-acrylamidopyridin-3-yl)-7-(3-fluoro-4-((4-methylpyrimidin-2-yl)oxy)phenyl)-3-methylpyrrolo[1,2-a]pyrazine-8-carboxamide], the figures for the IC50 at FGFR3 (setting [2]), against FGFR1 and at FGFR2 (setting [1]) were less than 10 nM, 10 to 100 nM and less than 10 nM, respectively.
On to `C=CC(=O)Nc1ccc(-c2c(-c3ccc(Oc4nccc(C)n4)c(F)c3)c(C(N)=O)c3cnc(C)cn23)cc1C` [Example 37, 6-(4-acrylamido-3-methylphenyl)-7-(3-fluoro-4-((4-methylpyrimidin-2-yl)oxy)phenyl)-3-methylpyrrolo[1,2-a]pyrazine-8-carboxamide], for which the IC50 at FGFR3 was 100 to 1000 nM; on FGFR1 (setting [3]), more than 1000 nM; on FGFR2 it was 10 to 100 nM.
On to `C=CC(=O)Nc1ccc(-c2c(-c3ccc(Oc4nccc(C)n4)cc3)c(C(N)=O)c3cnc(C)cn23)cc1OC` [Example 38, 6-(4-acrylamido-3-methoxyphenyl)-3-methyl-7-(4-((4-methylpyrimidin-2-yl)oxy)phenyl)pyrrolo[1,2-a]pyrazine-8-carboxamide], for which the 50% inhibitory concentration (IC50) on FGFR3 lay within 10 to 100 nM; at FGFR1 it was 100 to 1000 nM; against FGFR2, 10 to 100 nM.
For the compound `C=C(F)C(=O)Nc1ccc(-c2c(-c3cc(F)c(Oc4nccc(C)n4)c(F)c3)c(C(N)=O)c3cnc(C)cn23)cc1` [Example 48, 7-(3,5-difluoro-4-((4-methylpyrimidin-2-yl)oxy)phenyl)-6-(4-(2-fluoroacrylamido)phenyl)-3-methylpyrrolo[1,2-a]pyrazine-8-carboxamide], the 50% inhibitory concentration (IC50) at FGFR3 lay within 10 to 100 nM; against FGFR1 it was 100 to 1000 nM; against FGFR2 it was 10 to 100 nM.
For the compound `C=C(F)C(=O)Nc1ccc(-c2c(-c3ccc(Oc4nccc(C)n4)c(F)c3)c(C(N)=O)c3cnc(C)cn23)cn1` [Example 51, 7-(3-fluoro-4-((4-methylpyrimidin-2-yl)oxy)phenyl)-6-(6-(2-fluoroacrylamido)pyridin-3-yl)-3-methylpyrrolo[1,2-a]pyrazine-8-carboxamide], the IC50 at FGFR3 was 10 to 100 nM; at FGFR1, 10 to 100 nM; on FGFR2 (setting [1]) it was less than 10 nM.
As for `C=C(F)C(=O)Nc1ccc(-c2c(-c3ccc(Oc4cc(C)ccn4)cc3)c(C(N)=O)c3cnc(C)cn23)cc1` [Example 52], the IC50 is more than 1000 nM on FGFR3 (setting [2]), more than 1000 nM at FGFR1 (setting [3]) and 100 to 1000 nM against FGFR2.
As to `C=C(F)C(=O)Nc1ccc(-c2c(-c3ccc(Oc4nc(C)cc(C)n4)c(F)c3)c(C(N)=O)c3cnc(C)cn23)cc1` [Example 53, 7-(4-((4,6-dimethylpyrimidin-2-yl)oxy)-3-fluorophenyl)-6-(4-(2-fluoroacrylamido)phenyl)-3-methylpyrrolo[1,2-a]pyrazine-8-carboxamide], the IC50 on FGFR3 is 100 to 1000 nM; on FGFR1 (read-out: FGFR1 IC50, * incubation at room temperature for 60 minutes before addition of substrate solution, ATP 28 μM, FGFR1 0.01 nM), more than 1000 nM; on FGFR2, 10 to 100 nM.
Take `C=C(F)C(=O)Nc1ccc(-c2c(-c3ccc(Oc4ncc(F)c(C)n4)c(F)c3)c(C(N)=O)c3cnc(C)cn23)cc1` [Example 54, 7-(3-fluoro-4-((5-fluoro-4-methylpyrimidin-2-yl)oxy)phenyl)-6-(4-(2-fluoroacrylamido)phenyl)-3-methylpyrrolo[1,2-a]pyrazine-8-carboxamide]: the IC50 fell in the range of 10 to 100 nM against FGFR3, 100 to 1000 nM on FGFR1 and 10 to 100 nM on FGFR2.
Turning to `C=C(F)C(=O)Nc1ccc(-c2c(-c3ccc(Oc4nccc(C)n4)cc3)c(C(N)=O)c3cnc(C(F)(F)F)cn23)cc1` [Example 56, 6-(4-(2-fluoroacrylamido)phenyl)-7-(4-((4-methylpyrimidin-2-yl)oxy)phenyl)-3-(trifluoromethyl)pyrrolo[1,2-a]pyrazine-8-carboxamide], the IC50 at FGFR3 lay in the range of 100 to 1000 nM; against FGFR1, 100 to 1000 nM; against FGFR2 it was 10 to 100 nM.

(Values after patent publication US20250382297A1, “INHIBITORS OF FGFR2 AND FGFR3 AND USES THEREOF” (Insilico Medicine IP Limited, priority 2022, published 2025).)
